Molecular target: HPK1 (Homo sapiens (Human), UniProt Q92918)
Test: HPK1 Kinase Binding Assay
Outline: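 This is a LanthaScreen tracer-binding format: a tracer 222/Eu-anti-GST antibody mix (18 nM and 4 nM solution) is added to active HPK1 (4 nM solution) with 3-fold, 11-point compound dilutions. Incubation is 1 h at 25 °C in HEPES pH 7.5 buffer before reading, and Ki is determined.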

Sequence of HPK1 (Q92918 1-346): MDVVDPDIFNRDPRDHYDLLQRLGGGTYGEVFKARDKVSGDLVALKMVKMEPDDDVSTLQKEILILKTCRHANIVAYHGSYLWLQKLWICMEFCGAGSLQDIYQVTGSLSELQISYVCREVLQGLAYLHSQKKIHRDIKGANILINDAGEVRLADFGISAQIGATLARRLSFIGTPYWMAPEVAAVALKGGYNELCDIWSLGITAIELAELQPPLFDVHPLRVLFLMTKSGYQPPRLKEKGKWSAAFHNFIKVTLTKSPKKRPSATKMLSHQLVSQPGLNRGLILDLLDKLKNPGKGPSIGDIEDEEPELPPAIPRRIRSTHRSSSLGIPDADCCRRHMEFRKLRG

| SMILES | Ki |
| --- | --- |
| CNCc1cc(F)c(-c2cc3c(-c4ccc(N5CCOCC5)nc4)n[nH]c3cn2)c(C(F)(F)F)c1 [Example 121, 1-(3-Fluoro-4-(3-(6-morpholinopyridin-3-yl)-1H-pyrazolo[3,4-c]pyridin-5-yl)-5-(trifluoromethyl)phenyl)-N-methylmethanamine] | ≤ 100 nM |
| CNCc1cc(F)c(-c2cc3c(-c4cnn(C)c4)n[nH]c3cn2)c(F)c1 [Example 122, 1-(3,5-Difluoro-4-(3-(1-methyl-1H-pyrazol-4-yl)-1H-pyrazolo[3,4-c]pyridin-5-yl)phenyl)-N-methylmethanamine] | ≤ 100 nM |
| CC(C)NCc1cc(F)c(-c2cc3c(-c4cnn(C)c4)n[nH]c3cn2)c(F)c1 [Example 123, N-(3,5-Difluoro-4-(3-(1-methyl-1H-pyrazol-4-yl)-1H-pyrazolo[3,4-c]pyridin-5-yl)benzyl)propan-2-amine] | ≤ 100 nM |
| Cn1cc(-c2n[nH]c3cnc(-c4c(F)cc(CNc5ccccn5)cc4F)cc23)cn1 [Example 124, N-(3,5-Difluoro-4-(3-(1-methyl-1H-pyrazol-4-yl)-1H-pyrazolo[3,4-c]pyridin-5-yl)benzyl)pyridin-2-amine] | ≤ 100 nM |
| Cn1cc(-c2n[nH]c3cnc(-c4c(F)cc(CNc5ccn(C)n5)cc4F)cc23)cn1 [Example 125, N-(3,5-Difluoro-4-(3-(1-methyl-1H-pyrazol-4-yl)-1H-pyrazolo[3,4-c]pyridin-5-yl)benzyl)-1-methyl-1H-pyrazol-3-amine] | ≤ 100 nM |
| Cn1cc(-c2n[nH]c3cnc(-c4c(F)cc(CNCCO)cc4F)cc23)cn1 [Example 126, 2-(3,5-Difluoro-4-(3-(1-methyl-1H-pyrazol-4-yl)-1H-pyrazolo[3,4-c]pyridin-5-yl)benzylamino)ethanol] | ≤ 100 nM |
| CNCc1ccc(F)c(-c2cc3c(-c4cnn(C)c4)n[nH]c3cn2)c1F [Example 127, 1-(2,4-Difluoro-3-(3-(1-methyl-1H-pyrazol-4-yl)-1H-pyrazolo[3,4-c]pyridin-5-yl)phenyl)-N-methylmethanamine] | ≤ 100 nM |
| CC(C)NCc1ccc(F)c(-c2cc3c(-c4cnn(C)c4)n[nH]c3cn2)c1F [Example 128, N-(2,4-Difluoro-3-(3-(1-methyl-1H-pyrazol-4-yl)-1H-pyrazolo[3,4-c]pyridin-5-yl)benzyl)propan-2-amine] | ≤ 100 nM |
| Cn1cc(-c2n[nH]c3cnc(-c4c(F)ccc(CNC5CC5)c4F)cc23)cn1 [Example 129, N-(2,4-Difluoro-3-(3-(1-methyl-1H-pyrazol-4-yl)-1H-pyrazolo[3,4-c]pyridin-5-yl)benzyl)cyclo propanamine] | ≤ 100 nM |
| COC1CCCN(Cc2ccc(F)c(-c3cc4c(-c5cnn(C)c5)n[nH]c4cn3)c2F)C1 (centres unmarked) [Example 130, 5-(2,6-Difluoro-3-((3-methoxypiperidin-1-yl)methyl)phenyl)-3-(1-methyl-1H-pyrazol-4-yl)-1H-pyrazolo[3,4-c]pyridine] | ≤ 100 nM |
| CNCc1cc(F)c(-c2cc3c(-c4cnn(C)c4)n[nH]c3cn2)c(C(F)(F)F)c1 [Example 131, 1-(3-Fluoro-4-(3-(1-methyl-1H-pyrazol-4-yl)-1H-pyrazolo[3,4-c]pyridin-5-yl)-5-(trifluoromethyl)phenyl)-N-methylmethanamine] | ≤ 100 nM |
| CNCc1cc(F)c(-c2cc3c(-c4ccc(N5CCN(C)CC5)cc4)n[nH]c3cn2)c(C(F)(F)F)c1 [Example 132, 1-(3-Fluoro-4-(3-(4-(4-methylpiperazin-1-yl)phenyl)-1H-pyrazolo[3,4-c]pyridin-5-yl)-5-(trifluoromethyl)phenyl)-N-methylmethanamine] | ≤ 100 nM |
| CCn1cc(-c2n[nH]c3cnc(-c4c(C)cc(CNC)cc4F)cc23)cn1 [Example 133, 1-(4-(3-(1-Ethyl-1H-pyrazol-4-yl)-1H-pyrazolo[3,4-c]pyridin-5-yl)-3-fluoro-5-methylphenyl)-N-methylmethanamine] | ≤ 100 nM |
| CNCc1cc(C)c(-c2cc3c(-c4cnn(C5CC5)c4)n[nH]c3cn2)c(F)c1 [Example 134, 1-(4-(3-(1-Cyclopropyl-1H-pyrazol-4-yl)-1H-pyrazolo[3,4-c]pyridin-5-yl)-3-fluoro-5-methylphenyl)-N-methylmethanamine] | ≤ 100 nM |
| CNCc1cc(C)c(-c2cc3c(-c4cnn(-c5ccccc5C#N)c4)n[nH]c3cn2)c(F)c1 [Example 135, 2-(4-(5-(2-Fluoro-6-methyl-4-((methylamino)methyl)phenyl)-1H-pyrazolo[3,4-c]pyridin-3-yl)-1H-pyrazol-1-yl)benzonitrile] | ≤ 100 nM |
| CNCc1cc(C)c(-c2cc3c(-c4cnn(C5CCOCC5)c4)n[nH]c3cn2)c(F)c1 [Example 136, 1-(3-Fluoro-5-methyl-4-(3-(1-(tetrahydro-2H-pyran-4-yl)-1H-pyrazol-4-yl)-1H-pyrazolo[3,4-c]pyridin-5-yl)phenyl)-N-methylmethanamine] | ≤ 100 nM |

| SMILES | Ki |
| --- | --- |
| CNC1(c2cc(F)c(-c3cc4c(-c5cnn(C)c5)n[nH]c4cn3)c(F)c2)CC1 [Example 137, 1-(3,5-Difluoro-4-(3-(1-methyl-1H-pyrazol-4-yl)-1H-pyrazolo[3,4-c]pyridin-5-yl)phenyl)-N-methylcyclopropanamine] | ≤ 100 nM |
| CNCc1ccc(F)c(-c2cc3c(-c4cnn(C)c4)n[nH]c3cn2)c1OC [Example 138, 1-(4-Fluoro-2-methoxy-3-(3-(1-methyl-1H-pyrazol-4-yl)-1H-pyrazolo[3,4-c]pyridin-5-yl)phenyl)-N-methylmethanamine] | ≤ 100 nM |
| CCNCc1ccc(F)c(-c2cc3c(-c4cnn(C)c4)n[nH]c3cn2)c1OC [Example 139, N-(4-Fluoro-2-methoxy-3-(3-(1-methyl-1H-pyrazol-4-yl)-1H-pyrazolo[3,4-c]pyridin-5-yl)benzyl)ethanamine] | ≤ 100 nM |
| CC(C)NCc1cc(F)c(-c2cc3c(NC(=O)c4ccc(N5CCN(C)CC5)cc4)n[nH]c3cn2)c(F)c1 [Example 140, N-(5-(2,6-Difluoro-4-((isopropylamino)methyl)phenyl)-1H-pyrazolo[3,4-c]pyridin-3-yl)-4-(4-methylpiperazin-1-yl)benzamide] | ≤ 100 nM |
| CN1CCN(c2ccc(C(=O)Nc3n[nH]c4cnc(-c5c(F)cc(CN6CCCC6)cc5F)cc34)cc2)CC1 [Example 141, N-(5-(2,6-Difluoro-4-(pyrrolidin-1-ylmethyl)phenyl)-1H-pyrazolo[3,4-c]pyridin-3-yl)-4-(4-methylpiperazin-1-yl)benzamide] | ≤ 100 nM |
| CN1CCN(c2ccc(C(=O)Nc3n[nH]c4cnc(-c5c(F)cc(CN6CCC6)cc5F)cc34)cc2)CC1 [Example 142, N-(5-(4-(Azetidin-1-ylmethyl)-2,6-difluorophenyl)-1H-pyrazolo[3,4-c]pyridin-3-yl)-4-(4-methylpiperazin-1-yl)benzamide] | ≤ 100 nM |
| COC1CN(Cc2cc(F)c(-c3cc4c(NC(=O)c5ccc(N6CCN(C)CC6)cc5)n[nH]c4cn3)c(F)c2)C1 [Example 143, N-(5-(2,6-Difluoro-4-((3-methoxyazetidin-1-yl)methyl)phenyl)-1H-pyrazolo[3,4-c]pyridin-3-yl)-4-(4-methylpiperazin-1-yl)benzamide] | ≤ 100 nM |
| CNCc1cc(F)c(-c2cc3c(NC(=O)c4cnn(C)c4)n[nH]c3cn2)c(F)c1 [Example 144, N-(5-(2,6-Difluoro-4-((methylamino)methyl)phenyl)-1H-pyrazolo[3,4-c]pyridin-3-yl)-1-methyl-1H-pyrazole-4-carboxamide] | ≤ 100 nM |
| CNCc1cc(F)c(-c2cc3c(NC(=O)c4cccc(N5CCN(C)CC5)c4)n[nH]c3cn2)c(F)c1 [Example 145, N-(5-(2,6-Difluoro-4-((methylamino)methyl)phenyl)-1H-pyrazolo[3,4-c]pyridin-3-yl)-3-(4-methylpiperazin-1-yl)benzamide] | ≤ 100 nM |
| COc1cccc(C(=O)Nc2n[nH]c3cnc(-c4c(F)cc(CNC(C)C)cc4F)cc23)c1 [Example 146, N-(5-(2,6-Difluoro-4-((isopropylamino)methyl)phenyl)-1H-pyrazolo[3,4-c]pyridin-3-yl)-3-methoxybenzamide] | ≤ 100 nM |
| COC(=O)N1CCN(c2ccc(C(=O)Nc3n[nH]c4cnc(-c5c(F)cc(CNC(C)C)cc5F)cc34)cc2)CC1 [Example 147, Methyl 4-(4-(5-(2,6-difluoro-4-((isopropylamino)methyl)phenyl)-1H-pyrazolo[3,4-c]pyridin-3-ylcarbamoyl)phenyl)piperazine-1-carboxylate] | ≤ 100 nM |
| COC(=O)N1CCN(c2ccc(C(=O)Nc3n[nH]c4cnc(-c5c(F)cc(CNC(C)C)cc5F)cc34)c(F)c2)CC1 [Example 148, Methyl 4-(4-(5-(2,6-difluoro-4-((isopropylamino)methyl)phenyl)-1H-pyrazolo[3,4-c]pyridin-3-ylcarbamoyl)-3-fluorophenyl)piperazine-1-carboxylate] | ≤ 100 nM |
| COc1cc(N2CCN(C)CC2)ccc1C(=O)Nc1n[nH]c2cnc(-c3c(F)cc(CNC(C)C)cc3F)cc12 [Example 149, N-(5-(2,6-Difluoro-4-((isopropylamino)methyl)phenyl)-1H-pyrazolo[3,4-c]pyridin-3-yl)-2-methoxy-4-(4-methylpiperazin-1-yl)benzamide] | ≤ 100 nM |
| CC(C)NCc1cc(F)c(-c2cc3c(NC(=O)c4cccc(N5CCN(C)CC5)c4F)n[nH]c3cn2)c(F)c1 [Example 150, N-(5-(2,6-Difluoro-4-((isopropylamino)methyl)phenyl)-1H-pyrazolo[3,4-c]pyridin-3-yl)-2-fluoro-3-(4-methylpiperazin-1-yl)benzamide] | ≤ 100 nM |
| CC(C)NCc1cc(F)c(-c2cc3c(NC(=O)c4ccc(F)c(N5CCN(C)CC5)c4)n[nH]c3cn2)c(F)c1 [Example 151, N-(5-(2,6-Difluoro-4-((isopropylamino)methyl)phenyl)-1H-pyrazolo[3,4-c]pyridin-3-yl)-4-fluoro-3-(4-methylpiperazin-1-yl)benzamide] | ≤ 100 nM |
| Cc1cccc(F)c1-c1cc2c(NC(=O)c3ccc(N4CCN(C)CC4)cc3)n[nH]c2cn1 [Example 152, N-(5-(2-Fluoro-6-methylphenyl)-1H-pyrazolo[3,4-c]pyridin-3-yl)-4-(4-methylpiperazin-1-yl)benzamide] | ≤ 100 nM |
